Tested on: HCV 1b_Huh-Luc/Neo-ET cell line persistently expressing a bicistronic genotype 1b replicon in Huh 7 cells
Test: HCV replicon assay (luciferase readout)
Format: cell-based
Settings: Hepatitis C virus, Huh-7, 72 h, read-out: Inhibition of HCV genotype 1b
Procedure, shortened: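 Huh 7 cells carrying a genotype 1b luciferase/neo replicon treated in triplicate for 72 h, then luciferase activity measured. Signal expressed as % of control; EC50 from four-parameter logistic fit, determined several times.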

SMILES	EC50 [nM]
O=C(N[C@@H](C(=O)N1CCC[C@H]1c1ncc(-c2ccc(C#Cc3ccc(-c4cnc([C@@H]5CCCN5C(=O)[C@H](NC(=O)N5CCCCC5)c5ccccc5)[nH]4)cc3)cc2)[nH]1)c1ccccc1)N1CCCCC1 [Compound 250]	< 1
COC(=O)N[C@@H](C(=O)N1CCC[C@H]1c1ncc(C#Cc2ccc(C#Cc3cnc([C@@H]4CCCN4C(=O)[C@@H](c4ccccc4)N(C)C)[nH]3)cc2)[nH]1)c1ccccc1 [Compound 314]	< 1
COC(=O)N[C@H](C(=O)N1CCC[C@H]1c1ncc(-c2ccc(C#Cc3ccc4nc([C@@H]5CCCN5C(=O)[C@@H](C(C)C)N(C)C)[nH]c4c3)cc2)[nH]1)C(C)C [Compound 1020]	< 1
COC(=O)NC1(C(=O)N2CCC[C@H]2c2ncc(-c3ccc(C#Cc4ccc5nc([C@@H]6CCCN6C(=O)C6(NC(=O)OC)CCCC6)[nH]c5c4)cc3)[nH]2)CCCC1 [Compound 1044]	10 to 999
COC(=O)N[C@@H](C(=O)N1CCC[C@H]1c1ncc(-c2ccc(C#Cc3ccc(-c4cnc([C@@H]5CCCN5C(=O)[C@H](NC(=O)OC)C(C)C)[nH]4)cc3)cc2)[nH]1)C(C)C [Compound 292]	> 1000
O=C(N[C@@H](C(=O)N1CCC[C@H]1c1ncc(C#Cc2ccc(-c3ccc(-c4cnc([C@@H]5CCCN5C(=O)[C@H](NC(=O)C5CC5)c5ccccc5)[nH]4)cc3)cc2)[nH]1)c1ccccc1)C1CC1 [Compound 760]	< 1
COC(=O)N[C@@H](C(=O)N1CCC[C@H]1c1ncc(-c2ccc(C#Cc3ccc(-c4cnc([C@@H]5CCCN5C(=O)[C@H](NC(=O)[C@H]5CCCN5)c5ccccc5)[nH]4)cc3)cc2)[nH]1)c1ccccc1 [Compound 207]	< 1
COC(=O)N[C@H](C(=O)N1CCC[C@H]1c1nc2ccc(C#Cc3ccc(-c4cnc([C@@H]5CCCN5C(=O)[C@H](NC(=O)OC)C(C)C)[nH]4)cc3)cc2[nH]1)C(C)C [Compound 1053]	< 1
CC(C)(C)OC(=O)N[C@@H](C(=O)N1CCC[C@H]1c1ncc(-c2ccc(C#Cc3ccc4nc([C@@H]5CCCN5C(=O)[C@H](NC(=O)OC(C)(C)C)c5ccccc5)[nH]c4c3)cc2)[nH]1)c1ccccc1 [Compound 801]	< 1
CC(C)(C)OC(=O)N[C@@H](C(=O)N1CCC[C@H]1C(=O)NCCc1ccc(C#Cc2cnc([C@@H]3CCCN3C(=O)[C@H](NC(=O)OC(C)(C)C)c3ccccc3)[nH]2)cc1)c1ccccc1 [Compound 124]	< 1
COC(=O)N[C@@H](C(=O)N1CCC[C@H]1c1ncc(C#Cc2ccc(C#Cc3cnc([C@@H]4CCCN4C(=O)[C@@H](c4ccccc4)N4CCOCC4)[nH]3)cc2)[nH]1)c1ccccc1 [Compound 313]	< 1
CC(C)[C@@H](NC(=O)C1CC1)C(=O)N1CCC[C@H]1c1ncc(-c2ccc(C#Cc3ccc(-c4cnc([C@@H]5CCCN5C(=O)[C@H](NC(=O)C5CC5)C(C)C)[nH]4)cc3)cc2)[nH]1 [Compound 155]	1 to 9.9
COC(=O)N[C@@H]1CCC[C@H]1C(=O)N1CCC[C@H]1c1ncc(-c2ccc(C#Cc3ccc4nc([C@@H]5CCCN5C(=O)[C@@H]5CCC[C@H]5NC(=O)OC)[nH]c4c3)cc2)[nH]1 [Compound 1058]	10 to 999
COC(=O)N[C@@H](C(=O)N1CCC[C@H]1c1ncc(C#Cc2ccc(-c3ccc(-c4cnc([C@@H]5CCCN5C(=O)[C@H](NC(=O)OC)c5ccccc5)[nH]4)cc3)cc2)[nH]1)c1ccccc1 [Compound 750]	< 1
COC(=O)N[C@H](C(=O)N[C@@H](C)c1ncc(-c2ccc(C#Cc3ccc4nc([C@H](C)NC(=O)[C@@H](NC(=O)OC)C(C)C)[nH]c4c3)cc2)[nH]1)C(C)C [Compound 868]	< 1
COC(=O)N[C@@H](C(=O)N1CCC[C@H]1c1ncc(-c2ccc(C#Cc3ccc(-c4cnc([C@@H]5CCCN5C(=O)[C@H](NC(=O)N5CC[C@@H](O)C5)c5ccccc5)[nH]4)cc3)cc2)[nH]1)c1ccccc1 [Compound 268]	< 1
COC(=O)NC(C)(C)C(=O)N1CCC[C@H]1c1ncc(-c2ccc(C#Cc3ccc4nc([C@@H]5CCCN5C(=O)C(C)(C)NC(=O)OC)[nH]c4c3)cc2)[nH]1 [Compound 1050]	10 to 999
COC(=O)N[C@H](C(=O)N1CCC[C@H]1c1ncc(-c2ccc(C#Cc3ccc(-c4cnc([C@@H]5CCCN5C(=O)[C@H](NC(=O)N5CCN(C)CC5)c5ccccc5)[nH]4)cc3)cc2)[nH]1)C(C)C [Compound 989]	< 1
CC(C)(C)OC(=O)N[C@@H](C(=O)N1CCC[C@H]1c1ncc(C#Cc2ccc(C#Cc3cnc([C@@H]4CCCN4C(=O)[C@H](NC(=O)OC(C)(C)C)c4ccccc4)[nH]3)cc2)[nH]1)c1ccccc1 [Compound 300]	< 1
CN1CCN(C(=O)N[C@@H](C(=O)N2CCC[C@H]2c2ncc(-c3ccc(C#Cc4ccc(-c5cnc([C@@H]6CCCN6C(=O)[C@H](NC(=O)C6CC6)c6ccccc6)[nH]5)cc4)cc3)[nH]2)c2ccccc2)CC1 [Compound 238]	< 1
O=C(N[C@@H](C(=O)N1CCC[C@H]1c1ncc(-c2ccc(C#Cc3ccc(-c4cnc([C@@H]5CCCN5C(=O)[C@@H](c5ccccc5)N5CCCC5)[nH]4)cc3)cc2)[nH]1)c1ccccc1)C1CC1 [Compound 217]	< 1

SMILES	EC50 [nM]
O=C(N[C@@H](C(=O)N1CCC[C@H]1c1nc(-c2ccc3cc(C#Cc4cnc([C@@H]5CCCN5C(=O)[C@H](NC(=O)N5CC[C@H](O)C5)c5ccccc5)[nH]4)ccc3c2)c[nH]1)c1ccccc1)N1CC[C@H](O)C1 [Compound 806]	1 to 9.9
COC(=O)N[C@@H](C(=O)N1CCC[C@H]1c1ncc(-c2ccc(C#Cc3ccc(-c4cnc([C@@H]5CCCN5C(=O)[C@H](NC(=O)OC)c5ccccc5)[nH]4)cn3)cc2)[nH]1)c1ccccc1 [Compound 1010]	< 1
O=C(N[C@@H](C(=O)N1CCC[C@H]1c1ncc(C#Cc2ccc(C#Cc3cnc([C@@H]4CCCN4C(=O)[C@H](NC(=O)N4CCOCC4)c4ccccc4)[nH]3)cc2)[nH]1)c1ccccc1)N1CCOCC1 [Compound 309]	< 1
COCCOc1c(C#Cc2ccc3nc([C@@H]4CCCN4C(=O)[C@@H](NC(=O)OC)C(C)C)[nH]c3c2)ccc(-c2cnc([C@@H]3CCCN3C(=O)[C@H](NC(=O)OC)C(C)C)[nH]2)c1OCCOC [Compound 1066]	< 1
COC(=O)N[C@@H](C(=O)N1CCC[C@H]1c1ncc(-c2ccc(C#Cc3ccc(-c4cnc([C@@H]5CCCN5C(=O)[C@H](NC(=O)C5CC5)c5ccccc5)[nH]4)cc3)cc2)[nH]1)c1ccccc1 [Compound 218]	< 1
CC(C)(C)OC(=O)N[C@@H](C(=O)N1CCC[C@H]1C(=O)NCc1ccc(C#Cc2cnc([C@@H]3CCCN3C(=O)[C@H](NC(=O)OC(C)(C)C)c3ccccc3)[nH]2)cc1)c1ccccc1 [Compound 119]	< 1
CC[C@@H](C(=O)N1CCC[C@H]1c1ncc(-c2ccc(C#Cc3ccc(-c4cnc([C@@H]5CCCN5C(=O)[C@H](NC(=O)OC)c5ccccc5)[nH]4)cc3)cc2)[nH]1)c1ccccc1 [Compound 258]	< 1
O=C(N[C@@H](C(=O)N1CCC[C@H]1c1nc(-c2ccc3cc(C#Cc4cnc([C@@H]5CCCN5C(=O)[C@H](NC(=O)N5CCOCC5)c5ccccc5)[nH]4)ccc3c2)c[nH]1)c1ccccc1)N1CCOCC1 [Compound 808]	< 1
COC(=O)N[C@H](C(=O)N(C)[C@@H](C)c1ncc(-c2ccc(C#Cc3ccc(-c4cnc([C@@H]5CCCN5C(=O)[C@@H](NC(=O)OC)C(C)C)[nH]4)cc3)cc2)[nH]1)C(C)C [Compound 267]	< 1
COC(=O)N[C@@H](C(=O)N1CCC[C@H]1c1ncc(-c2ccc(C#Cc3ccc(-c4cnc([C@@H]5CCCN5C(=O)Cc5cccnc5)[nH]4)cc3)cc2)[nH]1)c1ccccc1 [Compound 181]	< 1
CC(C)(C)OC(=O)N1CCCC1c1ncc(-c2ccc(C#Cc3ccc4nc([C@@H]5CCCN5C(=O)OC(C)(C)C)[nH]c4c3)cc2)[nH]1 (stereo partly drawn) [Compound 1034]	1 to 9.9
CC(C)[C@H](NC(=O)N1CC[C@@H](O)C1)C(=O)N1CCC[C@H]1c1ncc(-c2ccc(C#Cc3ccc(-c4cnc([C@@H]5CCCN5C(=O)[C@@H](NC(=O)N5CC[C@@H](O)C5)C(C)C)[nH]4)cc3)cc2)[nH]1 [Compound 968]	10 to 999
COC(=O)N[C@H](C(=O)N1CCC[C@H]1c1ncc(-c2ccc(C#Cc3ccc(-c4cnc([C@H](C)NC(=O)[C@H](C(C)C)N(C)C)[nH]4)cc3)cc2)[nH]1)C(C)C [Compound 981]	10 to 999
COC(=O)N[C@@H](C(=O)N1CCC[C@H]1c1nc2ccc(C#Cc3ccc4nc([C@@H]5CCCN5C(=O)[C@H](NC(=O)OC)C(C)C)[nH]c4c3)cc2[nH]1)C(C)C [Compound 853]	< 1
COC(=O)N[C@@H](C(=O)N[C@H](c1ncc(-c2ccc(C#Cc3ccc(-c4cnc([C@@H]5CCCN5C(=O)[C@H](NC(=O)OC)c5ccccc5)[nH]4)cc3)cc2)[nH]1)C(C)C)c1ccccc1 [Compound 282]	< 1
CC(C)[C@H](NC(=O)C1CC1)C(=O)N1CCC[C@H]1c1ncc(-c2ccc(C#Cc3ccc(-c4cnc([C@@H]5CCCN5C(=O)[C@@H](NC(=O)C5CC5)C(C)C)[nH]4)cc3)cc2)[nH]1 [Compound 170]	1 to 9.9
COC(=O)NCC(=O)N1CCC[C@H]1c1ncc(-c2ccc(C#Cc3ccc4nc([C@@H]5CCCN5C(=O)CNC(=O)OC)[nH]c4c3)cc2)[nH]1 [Compound 1049]	10 to 999
CN(C)[C@@H](C(=O)N1CCC[C@H]1c1ncc(C#Cc2ccc(-c3cnc([C@@H]4CCCN4C(=O)[C@H](NC(=O)C4CC4)c4ccccc4)[nH]3)cc2)[nH]1)c1ccccc1 [Compound 133]	< 1
COC(=O)N[C@@H](C)C(=O)N1CCC[C@H]1c1ncc(-c2ccc(C#Cc3ccc(-c4cnc([C@@H]5CCCN5C(=O)[C@H](C)NC(=O)OC)[nH]4)cc3)cc2)[nH]1 [Compound 962]	< 1
C[C@@H](NC(=O)[C@@H]1CCCN1C(=O)[C@H](NC(=O)C1CC1)c1ccccc1)c1ccc(C#Cc2ccc(-c3cnc([C@@H]4CCCN4C(=O)[C@H](NC(=O)C4CC4)c4ccccc4)[nH]3)cc2)cc1 [Compound 168]	< 1
COC(=O)N[C@H](C(=O)N1CCC[C@H]1c1ncc(-c2ccc(C#Cc3ccc4nc([C@@H]5CCCN5C(=O)[C@@H](NC(=O)OC)C(C)C)[nH]c4c3)nc2)[nH]1)C(C)C [Compound 1033]	< 1

Source: US8865756B2, “Inhibitors of HCV NS5A” (Presidio Pharmaceuticals, Inc., priority 2008, dated 2014)
